Patent US20230226040A1, “COMBINATION THERAPY COMPRISING AN FGFR INHIBITOR AND A KRAS INHIBITOR” (Incyte Corporation, priority 2021, published 2023)

What was measured:
[1] = test system: LU99 lung cancer xenograft; assay: LU99 xenograft model, tumor growth inhibition; format: in vivo; conditions: NCr nude mice; AMG510 20 mg/kg, pemigatinib 0.3 mg/kg, alone or combined; oral QD, 30 days; last day of treatment
Description: The in vivo effect of combining the FGFR1 inhibitor pemigatinib plus the KRAS G12C inhibitor AMG510 was assessed in the LU99 lung cancer model (JCRB0080, JCRB) xenograft model (FIG. 3) in 6 to 8 week old female NCr nude mice (Taconic). Pemigatinib and AMG510 were suspended in 5% N,N-dimethyl acetamide (DMAC)+50 mM Citrate buffer (pH 3.0) in 0.5% methyl cellulose for oral administration. Briefly, mice were inoculated in the left flank with 1×10^7 LU99 cells re-suspended in a PBS and matrigel (Corning Life Sciences, Tewksbury, Mass) solution at 1:1. On Day 7, mice were randomized into 4 groups of 10 mice at approximate mean volume (˜212 mm^3). […] Tumor growth inhibition was calculated using the formula (1−(VT/VC))×100, where VT is the tumor volume of the treatment group on the last day of treatment, and Vc is the tumor volume of the control group on the last day of treatment. […] Statistics were determined using One-Way ANOVA.
Briefly, mice were inoculated in the left flank with 1×10^7LU99 cells re-suspended in a PBS and matrigel (Corning Life Sciences, Tewksbury, Mass) solution at 1:1. […] TGI was calculated using the formula (1−(VT/VC))×100, where VT is the tumor volume of the treatment group on the last day of treatment, and VC is the tumor volume of the control group on the last day of treatment. […]

[2] = test system: MiaPaca2 KRAS G12C resistant clone 23; assay: 5-day Cell Titer Glo viability and Bliss score; format: cell-based; conditions: 5-day CTG
Description: For G12C resistant clone generation, MiaPaca2 parent cells were cultured with increasing concentrations of AMG510 (up to 1μM) over time. The viable cells were re-fed fresh media containing AMG510 weekly. Once the AMG510 resistant cells were growing at normal rates in the presence of 1μM AMG510, they were cloned by limiting dilution. Eight clones were selected for continued passage and further experiments.

Structure (SMILES): CCN1C(=O)N(c2c(F)c(OC)cc(OC)c2F)Cc2cnc3[nH]c(CN4CCOCC4)cc3c21 [Pemigatinib, 3-(2,6-difluoro-3,5-dimethoxyphenyl)-1-ethyl-8-(morpholin-4-ylmethyl)-1,3,4,7-tetrahydro-2H-pyrrolo[3′,2′:5,6]pyrido[4,3-d]pyrimidin-2-one]
- TGI (tumor growth inhibition) [1]: 63%
- % viability, Together ([2]; G12C i 111 nM + Pemi 1 μM): 74.9%
- BLISS Score ([2]; G12C i 111 nM + Pemi 1 μM): 16.1
- % viability, Pemi 1 μM ([2]; Pemi alone): 100.1%
